Reference: the supplement of paper PMC4862054
“And” between values parts separate entries of the source, which are not always exact repeats. Equal entries are not always repeated.

Experiments:
Settings in all cases: incubation time: 72 h
CAL-85-1 [1] = assay: normalised viability (% of control), CellTiter-Blue; higher = more viable cells (about 100 = DMSO control)
Method: (§1)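 DSRT, CellTiter-Blue viability, 72 h incubation. Signal is normalised to DMSO and benzethonium chloride controls. Value is the normalised response at dose 9.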

CAL-148 [2] = assay: as above
Method: as §1

HCC1143 = assay: normalised viability (% of control), CellTiter-Blue; higher = more viable cells (about 100 = DMSO control)
How it was run: (§2)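 Seeded at 20 µl suspension per well onto compound-loaded 384-well plates, breast cancer cell lines were incubated 72 h. CellTiter-Blue fluorescence at 560/590 nm was then read, with each plate normalised to vehicle (100) and a positive kill control (0). Normalised viability is reported at a single listed concentration of the series.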

BT-474 = assay: as above
How it was run: as §2

MDA-MB-231 [3] = assay: as above
How it was run: as §2

MDA-MB-468 [4] = assay: as above
How it was run: as §2

CAL-85-1 [5] = assay: as above; remark: listed apart in the source
How it was run: as §2

HCC1937 = assay: as above
How it was run: as §2

MDA-MB-436 = assay: as above
How it was run: as §2

MDA-MB-453 = assay: as above
How it was run: as §2

HDQ-P1 = assay: as above
How it was run: as §2

CAL-148 [6] = assay: as above; remark: listed apart in the source
How it was run: as §2

DU-4475 = assay: as above
How it was run: as §2

CAL-120 = assay: as above
How it was run: as §2

BT-549 = assay: as above
How it was run: as §2

CAL-51 = assay: as above
How it was run: as §2

Hs578T = assay: as above
How it was run: as §2

MFM-223 = assay: as above
How it was run: as §2

SK-BR-3 [7] = assay: as above
How it was run: as §2

HCC1599 [8] = assay: as above
How it was run: as §2

MDA-MB-231 [9] = assay: drug sensitivity score (DSS), CellTiter-Glo (DSS (AUC-based score)); higher = stronger drug effect (viability inhibition or cytotoxicity); extreme values may be limits of the assay
How it was run: (§3)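 Each compound occupied 5 concentrations in 10-fold steps over its own 10,000-fold range in 384-well plates, into which breast cancer cell lines were seeded as 20 µl suspension. Following 72 h of incubation, CellTox Green fluorescence (485/520 nm) was measured, and CellTiter-Glo luminescence was measured after 10 min at room temperature. Plates were individually normalised to 0.1 % DMSO and a positive kill control. From the area under the fitted dose-response curve, a drug sensitivity score was calculated.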

MDA-MB-468 [10] = assay: as above
How it was run: as §3

SK-BR-3 [11] = assay: as above
How it was run: as §3

HCC1599 [12] = assay: as above
How it was run: as §3

Compound Cc1c(N)nc([C@H](CC(N)=O)NC[C@H](N)C(N)=O)nc1C(=O)N[C@H](C(=O)N[C@H](C)[C@@H](O)[C@H](C)C(=O)N[C@H](C(=O)NCCc1nc(-c2nc(C(=O)NCCC[S+](C)C)cs2)cs1)[C@@H](C)O)[C@@H](OC1OC(CO)C(O)C(O)C1OC1OC(CO)C(O)C(OC(N)=O)C1O)c1cnc[nH]1 (stereo partly specified) [Bleomycin] (10000 nM) has a normalised viability (CAL-85-1 [1]) of 96.9% and a normalised viability (CAL-148 [2]) of 82.8%.

Cc1cc2c(F)c(Oc3ncnn4cc(OC[C@@H](C)O)c(C)c34)ccc2[nH]1 [Brivanib] (1000 nM) showed a normalised viability (CAL-85-1 [1]) of 86.9% and a normalised viability (CAL-148 [2]) of 86.8%.

CCCCCOC(=O)Nc1nc(=O)n([C@@H]2O[C@H](C)[C@@H](O)[C@H]2O)cc1F [Capecitabine] (10000 nM) was tested, and the normalised viability (CAL-148 [2]) was 75.5% and 97.8%.

Work on CC(C)C[C@H](NC(=O)[C@H](CCc1ccccc1)NC(=O)CN1CCOCC1)C(=O)N[C@@H](Cc1ccccc1)C(=O)N[C@@H](CC(C)C)C(=O)[C@@]1(C)CO1 [Carfilzomib] (1000 nM) yielded a normalised viability (CAL-85-1 [1]) of 2.67% and a normalised viability (CAL-148 [2]) of 2.83%.

Compound Nc1nc(Cl)nc2c1ncn2[C@@H]1O[C@H](CO)[C@@H](O)[C@@H]1F [Clofarabine] (10000 nM) has a normalised viability (CAL-85-1 [1]) of 51.2% and a normalised viability (CAL-148 [2]) of 35.5%.

In the case of CCN(CC)CCOc1ccc(C(=C(Cl)c2ccccc2)c2ccccc2)cc1 [Clomifene] (10000 nM), the normalised viability (CAL-85-1 [1]) is reported as 42.8% and the normalised viability (CAL-148 [2]) is reported as 93.4%.

C[C@@H]1C[C@H]2[C@@H]3CCC4=CC(=O)C=C[C@]4(C)[C@@]3(F)[C@@H](O)C[C@]2(C)[C@@]1(O)C(=O)CO [Dexamethasone] (10000 nM) gave a normalised viability (CAL-85-1 [1]) of 105% and a normalised viability (CAL-148 [2]) of 109%.

Compound CN1CCN(c2nc(C3=C(c4c[nH]c5ccccc45)C(=O)NC3=O)c3ccccc3n2)CC1 [Sotrastaurin] has a normalised viability (HCC1143; 10 nM) of 135%, a normalised viability (HCC1143; 1000 nM) of 119% and a normalised viability (HCC1143; 10000 nM) of 120%. For the same compound, the normalised viability (BT-474; 10 nM) was 112%, the normalised viability (BT-474; 1000 nM) was 109% and the normalised viability (BT-474; 10000 nM) was 94.6%. The normalised viability (MDA-MB-231 [3]; 10 nM) was 94.5%, the normalised viability (MDA-MB-231 [3]; 1000 nM) was 101% and the normalised viability (MDA-MB-231 [3]; 10000 nM) was 124%. It also gave a normalised viability (MDA-MB-468 [4]; 10 nM) of 95.6%, a normalised viability (MDA-MB-468 [4]; 1000 nM) of 93% and a normalised viability (MDA-MB-468 [4]; 10000 nM) of 89.8%. It also gave a normalised viability (CAL-85-1 [5]; 3 nM) of 106%, a normalised viability (CAL-85-1 [5]; 30 nM) of 111% and a normalised viability (CAL-85-1 [5]; 100 nM) of 130%. It also gave a normalised viability (HCC1937; 10 nM) of 54.1%, a normalised viability (HCC1937; 1000 nM) of 81.4% and a normalised viability (HCC1937; 10000 nM) of 95.1%. For the same compound, the normalised viability (MDA-MB-436; 10 nM) was 112%, the normalised viability (MDA-MB-436; 1000 nM) was 59.1% and the normalised viability (MDA-MB-436; 10000 nM) was 107%. The normalised viability (MDA-MB-453; 3 nM) was 102%, the normalised viability (MDA-MB-453; 30 nM) was 105% and the normalised viability (MDA-MB-453; 100 nM) was 87.7%. The normalised viability (HDQ-P1; 3 nM) was 88.9%, the normalised viability (HDQ-P1; 30 nM) was 98.8% and the normalised viability (HDQ-P1; 100 nM) was 94.1%. The normalised viability (CAL-148 [6]; 3 nM) was 115%, the normalised viability (CAL-148 [6]; 30 nM) was 113% and the normalised viability (CAL-148 [6]; 100 nM) was 119%. The normalised viability (DU-4475; 3 nM) was 98.6%, the normalised viability (DU-4475; 30 nM) was 94% and the normalised viability (DU-4475; 100 nM) was 115%. The normalised viability (CAL-120; 10 nM) was 110%, the normalised viability (CAL-120; 1000 nM) was 118% and the normalised viability (CAL-120; 10000 nM) was 110%. The normalised viability (BT-549; 10 nM) was 82.5%, the normalised viability (BT-549; 1000 nM) was 92.8% and the normalised viability (BT-549; 10000 nM) was 74.2%. It also gave a normalised viability (CAL-51; 3 nM) of 94.4%, a normalised viability (CAL-51; 30 nM) of 91% and a normalised viability (CAL-51; 100 nM) of 90.9%. The normalised viability (Hs578T; 10 nM) was 98.7%, the normalised viability (Hs578T; 1000 nM) was 98.4% and the normalised viability (Hs578T; 10000 nM) was 87.2%. For the same compound, the normalised viability (MFM-223; 10 nM) was 103%, the normalised viability (MFM-223; 1000 nM) was 93.8% and the normalised viability (MFM-223; 10000 nM) was 74%. It also gave a normalised viability (SK-BR-3 [7]; 10 nM) of 95.6%, a normalised viability (SK-BR-3 [7]; 1000 nM) of 103% and a normalised viability (SK-BR-3 [7]; 10000 nM) of 73.1%. It also gave a normalised viability (HCC1599 [8]; 10 nM) of 121%, a normalised viability (HCC1599 [8]; 1000 nM) of 108% and a normalised viability (HCC1599 [8]; 10000 nM) of 101%. The drug sensitivity score (MDA-MB-231 [9]) was 0, the drug sensitivity score (MDA-MB-468 [10]) was 0 and the drug sensitivity score (SK-BR-3 [11]) was 1.56. The drug sensitivity score (HCC1599 [12]) was 0.
